Source: patent US12054497B2, “Substituted heterocyclic fused cyclic compound, preparation method therefor and pharmaceutical use thereof” (GENFLEET THERAPEUTICS (SHANGHAI) INC., priority 2019, dated 2024)
pIC50: −log10 of the molar value.

Key:
Type in all cases: cell-based, human
[1] = test system: A549 cells with Kras G12S mutation; assay: Cell proliferation inhibition experiment, 3D spheroid, CellTiter-Glo (Test Example 1); conditions: Homo sapiens, A549, 120 h, 5 days
Procedure: (§1) NCI-H358 was a human NSCLC cell line with Kras G12C mutation, which was cultured in a RPMI-1640 medium with 10% fetal bovine serum (FBS). A549 was a human lung adenocarcinoma cell line with Kras G12S mutation, which was cultured in an F-12K medium with 10% FBS. Cells in logarithmic growth phase were detached with trypsin and EDTA, collected and counted, and H358 was regulated to 1.8E4 cells/ml by using an RPMI-1640 medium with 2% FBS, while A549 was regulated to 8.9E3 cells/ml with an F-12K medium containing 2% FBS. 800 (45 μl) H358 cells and 400 (45 μl) A549 cells were seeded to 384-well spheroid plates, respectively, and cultured overnight to establish 3D cell models. 1000× stock solutions of compounds at a concentration gradient of 3.16 were prepared by using DMSO, and diluted 100 times by the medium with 2% FBS into 10× stock solutions of compounds. On the day after cell seeding, 5 μl of 10× stock solution of a compound was added to each well of cell culture plate, with a final concentration being 1× and a DMSO content of 0.1%. DMSO was used as the control, and the medium with 2% FBS was used as blank control group. After 5 days of cell culture with the compound, 25 μl of CellTiter-Glo working solution was added to each well, and mixed uniformly at 400 rpm and incubation for 30 minutes. After standing at room temperature for 30 minutes, 40 μl of mixed solution was transferred to a 384-well plate with white clear bottom. A value of luminescence was then read, and a cell proliferation inhibition rate (IR) (%)=(RLU control-RLU compound)/(RLU control−RLU blank)×100%. The value of IC50 was calculated by fitting a gradiently diluted concentration of the compound and the corresponding cell proliferation inhibition rate using a Prism 6 four-parameter method.

[2] = test system: NCI-H358 cells with Kras G12C mutation; assay: as above; conditions: Homo sapiens, NCI-H358, 120 h, 5 days
Procedure: as §1

[3] = test system: phosphorylated ERK in MIA PaCa2 cells with Kras G12C mutation; assay: p-ERK HTRF assay for cells (Test Example 2); conditions: Homo sapiens, MIA PaCa-2, 2 h, MIA PaCa2 cells, 2 hours with compound; read-out: p-ERK IC50
Procedure: MIA PaCa2 was a human pancreatic carcinoma cell line with Kras G12C mutation, which was cultured in a DMEM with 10% FBS and 2.5% Horse serum. Cells in logarithmic growth phase were detached with trypsin and EDTA, collected and counted, and 2.5E4 cells were seeded to a 96-well cell culture plate and cultured overnight. 1000× stock solutions of compounds at a concentration gradient of 3.16 were prepared by using DMSO, and diluted 200 times by the medium into 5× stock solutions of compounds. On the day after cell seeding, 5× stock solution of a compound was added to each well of cell culture plate, with a final concentration being 1× and a DMSO content of 0.1%. DMSO was used as the control. The residual culture was removed after culturing for 2 hours with the compound. To each well, 50 ul of cell lysis buffer was added and mixed uniformly and incubation for 30 minutes. Subsequently, 16 ul of mixed solution was transferred to a 96-well plate with white unclear bottom, and 16 ul of cell lysis buffer was added to the blank control group. After the completion of transfer, 4 ul of p-ERK HTRF antibody mixture was added to each well, and a value of fluorescence intensity was read after incubation for 4 hours. The inhibition rate (IR) of the compound was calculated by the following equation: IR (%)=(RLU control-RLU compound)/(RLU control−RLU blank)×100%. The value of IC50 was calculated by fitting a gradiently diluted concentration of the compound and the corresponding cell proliferation inhibition rate using a Prism 8 four-parameter method.

[4] = test system: MIA PaCa-2 cells with Kras G12C mutation; assay: Cell proliferation inhibition experiment, 3D spheroid, CellTiter-Glo (Test Example 3); conditions: Homo sapiens, MIA PaCa-2, 120 h, 5 days, read-out: MIA-PaCa2 IC50
Procedure: MIA PaCa-2 was a human pancreatic carcinoma cell line with Kras G12C mutation, which was cultured in a DMEM with 10% FBS and 2.5% Horse serum. A549 was a human lung adenocarcinoma cell line with Kras G12S mutation, which was cultured in an F-12K medium with 10% FBS. Cells in logarithmic growth phase were detached with trypsin and EDTA, collected and counted, and 200 MIA PaCa-2 cells and 400 A549 cells were seeded to 384-well spheroid plates, respectively, and cultured overnight to establish 3D cell models. 1000× stock solutions of compounds at a concentration gradient of 3.16 were prepared by using DMSO, and diluted 100 times by the medium into 10× stock solutions of compounds. On the day after cell seeding, 10× stock solution of a compound was added to each well of cell culture plate, with a final concentration being 1× and a DMSO content of 0.1%. DMSO was used as the control, and the medium was used as the blank. After 5 days of cell culture with the compound, 30 μl of CellTiter-Glo working solution was added to each well, and mixed uniformly and incubation for 30 minutes. After standing at room temperature for 30 minutes, 40 μl of mixed solution was transferred to a 384-well plate with white unclear bottom. A value of luminescence intensity was then read, and a cell proliferation inhibition rate (IR) (%)=(RLU control−RLU compound)/(RLU control−RLU blank)×100%. The value of IC50 was calculated by fitting a gradiently diluted concentration of the compound and the corresponding cell proliferation inhibition rate using an XLFit four-parameter method.

| Compound | pIC50 [1] | pIC50 [2] | pIC50 [3] | pIC50 [4] |
| --- | --- | --- | --- | --- |
| C=CC(=O)N1C[C@@H]2C(=O)N(C)c3c(c4cc(F)c(-c5c(O)cccc5F)nc4n(-c4c(C(C)C)ncnc4C(C)C)c3=O)N2C[C@H]1C [Compound Z40, (2R,4aR)-3-acryloyl-8-(4,6-diisopropylpyrimidin-5-yl)-11-fluoro-10-(2-fluoro-6-hydroxyphenyl)-2,6-dimethyl-2,3,4,4a,6,8-hexahydro-1H-pyrazino[1′,2′:4,5]pyrazino[2,3-c][1,8]naphthyridin-5,7-dione] | < 4.52 | 7.96 | 7.11 | 7.92 |
| C=CC(=O)N1CCN2c3c(c(=O)n(-c4c(C(C)C)ncnc4C(C)C)c4nc(-c5c(O)cccc5F)c(F)cc34)N(C)C(=O)[C@H]2C1 [Compound Z41, (4aR)-3-acryloyl-8-(4,6-diisopropylpyrimidin-5-yl)-11-fluoro-10-(2-fluoro-6-hydroxyphenyl)-6-methyl-2,3,4,4a,6,8-hexahydro-1H-pyrazino[1′,2′:4,5]pyrazino[2,3-c][1,8]naphthyridin-5,7-dione] | < 4.52 | 7.77 | 6.55 | 7.36 |
| C=CC(=O)N1CCN2c3c(c(=O)n(-c4c(C)ccnc4C(C)C)c4nc(-c5c(O)cccc5F)c(F)cc34)NC(=O)CC2C1 (centres unmarked) [Compound Z42, 3-acryloyl-12-fluoro-11-(2-fluoro-6-hydroxyphenyl)-9-(2-isopropyl-4-methylpyridin-3-yl)-1,2,3,4,4a,5,7,9-octahydropyrazino[1′,2′:4,5][1,4]diaza[2,3-c][1,8]naphthyridin-6,8-dione] | < 4.52 | 7.28 | 6.25 | 6.89 |
| [2H]C([2H])([2H])N1C(=O)[C@H]2CN(C(=O)C=C)[C@H](C)CN2c2c1c(=O)n(-c1c(C(C)C)ncnc1C(C)C)c1nc(-c3c(O)cccc3F)c(F)cc21 [Compound Z44, (2R,4aR)-3-acryloyl-8-(4,6-diisopropylpyrimidin-5-yl)-11-fluoro-10-(2-fluoro-6-hydroxyphenyl)-2-methyl-6-(methyl-d3)-2,3,4,4a,6,8-hexahydro-1H-pyrazino[1′,2′:4,5]pyrazino[2,3-c][1,8]naphthyridin-5,7-dione] | < 4.52 | 7.96 | 7.06 | 7.47 |
| [2H]C([2H])([2H])N1C(=O)[C@H]2CN(C(=O)C=C)[C@H](C)CN2c2c1c(=O)n(-c1c(C(C)C)ncnc1C(C)C)c1nc(-c3c(F)cccc3OC)c(F)cc21 [Compound Z44a, (2R,4aR)-3-acryloyl-8-(4,6-diisopropylpyrimidin-5-yl)-11-fluoro-10-(2-fluoro-6-methoxyphenyl)-2-methyl-6-(methyl-d3)-2,3,4,4a,6,8-hexahydro-1H-pyrazino[1′,2′:4,5]pyrazino[2,3-c][1,8]naphthyridin-5,7-dione] | 5.03 | 7.62 | 6.77 | 6.99 |
| C=CC(=O)N1C[C@@H]2C(=O)Nc3c(c4cc(F)c(-c5c(O)cccc5F)nc4n(-c4c(C(C)C)ncnc4C(C)C)c3=O)N2C[C@H]1C [Compound Z45, (2R,4aR)-3-acryloyl-8-(4,6-diisopropylpyrimidin-5-yl)-11-fluoro-10-(2-fluoro-6-hydroxyphenyl)-2-methyl-2,3,4,4a,6,8-hexahydro-1H-pyrazino[1′,2′:4,5]pyrazino[2,3-c][1,8]naphthyridin-5,7-dione] | < 4.52 | 7.89 | 6.91 | 7.32 |
| C=CC(=O)N1C[C@@H]2C(=O)N(C)c3c(c4cc(F)c(-c5c(O)cccc5F)nc4n(-c4c(C)cc(C)nc4C(C)C)c3=O)N2C[C@H]1C [Compound Z46] | 4.99 | 7.92 | 6.65 | 7.17 |

More lines, now with the values ahead:

| pIC50 [1] | pIC50 [2] | pIC50 [3] | pIC50 [4] | Compound |
| --- | --- | --- | --- | --- |
| < 5.00 | 7.80 | 6.80 | 7.74 | C=CC(=O)N1C[C@@H]2COc3c(c4cc(F)c(-c5c(O)cccc5F)nc4n(-c4c(C)ccnc4C(C)C)c3=O)N2C[C@H]1C [Compound Z3, (6aR,9R)-8-acryloyl-3-fluoro-2-(2-fluoro-6-hydroxyphenyl)-13-(2-isopropyl-4-methylpyridin-3-yl)-9-methyl-6,6a,7,8,9,10-hexahydropyrazino[1′,2′:4,5][1,4]oxopyrazino[3,2-c][1,8]naphthyridin-12(13H)-one] |
| < 5.00 | 7.77 | 6.56 | 7.15 | C=CC(=O)N1C[C@@H]2COc3c(c4cc(F)c(-c5c(F)cccc5OC)nc4n(-c4c(C)ccnc4C(C)C)c3=O)N2C[C@H]1C [Compound Z3a, (2R,4aR)-3-acryloyl-11-fluoro-10-(2-fluoro-6-methoxyphenyl)-8-(2-isopropyl-4-methylpyridin-3-yl)-2-methyl-1,2,3,4,4a,5-hexahydropyrazino[1′,2′:4,5][1,4]oxopyrazino[2,3-c][1,8]naphthyridin-7(8H)-one] |
| 4.95 | 7.46 | 6.50 | 7.07 | C=CC(=O)N1CCN2c3c(c(=O)n(-c4c(C)ccnc4C(C)C)c4nc(-c5c(O)cccc5F)c(Cl)cc34)OC[C@H]2C1 [Compound Z6, (4aR)-3-acryloyl-11-chloro-10-(2-fluoro-6-hydroxyphenyl)-8-(2-isopropyl-4-methylpyridin-3-yl)-1,2,3,4,4a,5-hexahydropyrazino[1′,2′:4,5][1,4]oxazino[2,3-c][1,8]naphthyridin-7(8H)-one] |
| 4.53 | 7.31 | 6.36 | 6.66 | C=CC(=O)N1CCN2c3c(c(=O)n(-c4c(C)ccnc4C(C)C)c4nc(-c5c(O)cccc5F)c(F)cc34)N(C)C(=O)CC2C1 (centres unmarked) [Compound Z43, 3-acryloyl-12-fluoro-11-(2-fluoro-6-hydroxyphenyl)-9-(2-isopropyl-4-methylpyridin-3-yl)-7-methyl-1,2,3,4,4a,5,7,9-octahydropyrazino[1′,2′:4,5][1,4]diaza[2,3-c][1,8]naphthyridin-6,8-dione] |
